{
  "source": "patent US20230138395A1",
  "about": "“PHARMACEUTICAL COMPOSITIONS OF A THERAPEUTIC POLYENE MACROLIDE AND METHODS OF THEIR USE” (priority 2020, published 2023)",
  "key": {"Candida albicans": {"system": "Candida albicans", "assay": "MIC testing (CLSI M27-A3)", "assay_type": "cell-based", "details": "for MIC Range: in µg/mL"}, "C. glabrata strains [1]": {"system": "C. glabrata strains", "assay": "MIC testing (CLSI M27-A3)", "assay_type": "cell-based"}, "C. glabrata strains [2]": {"system": "C. glabrata strains", "assay": "MFC determination", "assay_type": "cell-based"}, "C. krusei strains": {"system": "C. krusei strains", "assay": "MFC determination", "assay_type": "cell-based"}, "C. parapsilosis": {"system": "C. parapsilosis", "assay": "MIC testing (CLSI M27-A3)", "assay_type": "cell-based"}, "C. tropicalis": {"system": "C. tropicalis", "assay": "MIC testing (CLSI M27-A3)", "assay_type": "cell-based"}, "all Candida strains": {"system": "all Candida strains", "assay": "MFC determination, summary", "assay_type": "cell-based"}, "Cr. neoformans strains [3]": {"system": "Cr. neoformans strains", "assay": "MIC testing (CLSI M27-A3, YNB, 72 h)", "assay_type": "cell-based, Cryptococcus neoformans"}, "Cr. neoformans strains [4]": {"system": "Cr. neoformans strains", "assay": "MFC determination", "assay_type": "cell-based, Cryptococcus neoformans"}, "[5]": {"system": "individual Aspergillus spp. (Table 12, species not named)", "assay": "MIC testing (CLSI M38-A2), Table 12", "assay_type": "cell-based", "details": "Aspergillus sp. of Table 12, caspofungin read as MEC"}, "[6]": {"system": "individual Aspergillus spp. (Table 14, species not named)", "assay": "MIC testing (CLSI M38-A2), Table 14", "assay_type": "cell-based", "details": "Aspergillus sp. of Table 14, caspofungin read as MEC"}, "[7]": {"system": "individual Aspergillus spp. (Table 14, species not named)", "assay": "MFC determination, Table 14", "assay_type": "cell-based", "details": "Aspergillus sp. of Table 14"}, "[8]": {"system": "individual Aspergillus spp. (Table 15, species not named)", "assay": "MFC determination, Table 15", "assay_type": "cell-based", "details": "Aspergillus sp. of Table 15"}, "[9]": {"system": "all Aspergillus strains tested", "assay": "MIC testing (CLSI M38-A2), summary", "assay_type": "cell-based", "details": "caspofungin read as MEC"}, "[10]": {"system": "all Aspergillus strains tested", "assay": "MFC determination, summary", "assay_type": "cell-based"}, "Fusarium strains [11]": {"system": "Fusarium strains", "assay": "MIC testing (CLSI M38-A2), Table 17", "assay_type": "cell-based, Fusarium spp.", "details": "Fusarium strains (Table 17)"}, "Fusarium strains [12]": {"system": "Fusarium strains", "assay": "MFC determination, Table 17", "assay_type": "cell-based, Fusarium spp.", "details": "Fusarium strains (Table 17)"}, "[13]": {"system": "Fusarium strains (Table 18)", "assay": "MFC determination, Table 18", "assay_type": "cell-based, Fusarium spp."}, "Penicillium strains [14]": {"system": "Penicillium strains", "assay": "MIC testing (CLSI M38-A2)", "assay_type": "cell-based, Penicillium spp."}, "Penicillium strains [15]": {"system": "Penicillium strains", "assay": "MFC determination", "assay_type": "cell-based, Penicillium spp."}, "A. fumigatus AF91": {"system": "A. fumigatus AF91", "assay": "In vitro activity (MFC) against the infecting strain, Example 17", "assay_type": "cell-based, Aspergillus fumigatus", "protocol": "Minimum Fungicidal Concentration: MFC determinations were performed according to the modifications previously described by Canton et al., Diagn. Microbiol. Infect. Dis., 45:203-206, 2003, and Ghannoum and Isham, Infectious Diseases in Clinical Practice, 15(4):250-253, 2007.\nSpecifically, the total contents of each clear well from the MIC assay were subcultured onto potato dextrose agar. To avoid antifungal carryover, the aliquots were allowed to soak into the agar and then were streaked for isolation once dry, thus removing the cells from the drug source. Fungicidal activity is defined as ≥99.9% reduction in the number of colony forming units (CFU)/ml from the starting inoculum count, while fungistatic activity is defined as <99.9% reduction. […] MIC and MFC values are considered to be equivalent if they are within 2 dilutions."}, "C. albicans SC5314 [16]": {"system": "C. albicans SC5314", "assay": "In vitro activity (MIC) against the infecting strain, Example 18", "assay_type": "cell-based, Candida albicans"}, "C. albicans SC5314 [17]": {"system": "C. albicans SC5314", "assay": "In vitro activity (MFC) against the infecting strain, Example 18", "assay_type": "cell-based, Candida albicans"}},
  "data": [
    {"smiles": "C[C@@H]1[C@H](O)[C@@H](C)/C=C/C=C/C=C/C=C/C=C/C=C/C=C/[C@H](O[C@@H]2O[C@H](C)[C@@H](O)[C@H](N)[C@@H]2O)C[C@@H]2O[C@](O)(C[C@@H](O)C[C@@H](O)[C@H](O)CC[C@@H](O)C[C@@H](O)CC(=O)O[C@H]1C)C[C@H](O)[C@H]2C(=O)O", "note": "[Amphotericin B]", "values": [
      {"measurement": "MIC Range", "setting": "Candida albicans; Fluconazole-resistant C. albicans n = 7", "result": "0.25-1"},
      {"measurement": "MIC Range", "setting": "Candida albicans; Fluconazole-susceptible C. albicans n = 13", "result": "0.125-0.5"},
      {"measurement": "MIC50", "setting": "Candida albicans; Fluconazole-susceptible C. albicans n = 13, inhibits 50% of strains", "result": 0.25, "unit": "µg/mL"},
      {"measurement": "MIC90", "setting": "Candida albicans; Fluconazole-susceptible C. albicans n = 13, inhibits 90% of strains", "result": 0.5, "unit": "µg/mL"},
      {"measurement": "MIC Range", "setting": "C. glabrata strains [1]; C. glabrata strains, in µg/mL", "result": "0.125-1"},
      {"measurement": "MIC50", "setting": "C. glabrata strains [1]; C. glabrata, inhibits 50% of strains", "result": 0.5, "unit": "µg/mL"},
      {"measurement": "MIC90", "setting": "C. glabrata strains [1]; C. glabrata, inhibits 90% of strains", "result": 0.5, "unit": "µg/mL"},
      {"measurement": "MFC Range", "setting": "C. glabrata strains [2]; C. glabrata strains, in µg/mL", "result": "0.5-1"},
      {"measurement": "MFC50", "setting": "C. glabrata strains [2]; C. glabrata, kills 50% of strains", "result": 0.5, "unit": "µg/mL"},
      {"measurement": "MFC90", "setting": "C. glabrata strains [2]; C. glabrata, kills 90% of strains", "result": 1, "unit": "µg/mL"},
      {"measurement": "MFC Range", "setting": "C. krusei strains; C. krusei strains, in µg/mL", "result": 1},
      {"measurement": "MFC50", "setting": "C. krusei strains; C. krusei, kills 50% of strains", "result": 1, "unit": "µg/mL"},
      {"measurement": "MFC90", "setting": "C. krusei strains; C. krusei, kills 90% of strains", "result": 1, "unit": "µg/mL"},
      {"measurement": "MIC Range", "setting": "C. parapsilosis; C. parapsilosis strains, in µg/mL", "result": "0.125-1"},
      {"measurement": "MIC50", "setting": "C. parapsilosis; C. parapsilosis, inhibits 50% of strains", "result": 0.25, "unit": "µg/mL"},
      {"measurement": "MIC90", "setting": "C. parapsilosis; C. parapsilosis, inhibits 90% of strains", "result": 0.5, "unit": "µg/mL"},
      {"measurement": "MIC Range", "setting": "C. tropicalis; C. tropicalis strains, in µg/mL", "result": "0.25-0.5"},
      {"measurement": "MIC50", "setting": "C. tropicalis; C. tropicalis, inhibits 50% of strains", "result": 0.25, "unit": "µg/mL"},
      {"measurement": "MIC90", "setting": "C. tropicalis; C. tropicalis, inhibits 90% of strains", "result": 0.5, "unit": "µg/mL"},
      {"measurement": "MFC Range", "setting": "all Candida strains; in µg/mL", "result": "0.125-2"},
      {"measurement": "MFC50", "setting": "all Candida strains; kills 50% of strains", "result": 0.5, "unit": "µg/mL"},
      {"measurement": "MFC90", "setting": "all Candida strains; kills 90% of strains", "result": 1, "unit": "µg/mL"},
      {"measurement": "MIC Range", "setting": "Cr. neoformans strains [3]; Cr. neoformans strains, 72 h, in µg/mL", "result": "0.06-1"},
      {"measurement": "MIC50", "setting": "Cr. neoformans strains [3]; Cr. neoformans, inhibits 50% of strains", "result": 0.25, "unit": "µg/mL"},
      {"measurement": "MIC90", "setting": "Cr. neoformans strains [3]; Cr. neoformans, inhibits 90% of strains", "result": 0.5, "unit": "µg/mL"},
      {"measurement": "MFC Range", "setting": "Cr. neoformans strains [4]; Cr. neoformans strains, in µg/mL", "result": "0.25-2"},
      {"measurement": "MFC50", "setting": "Cr. neoformans strains [4]; Cr. neoformans, kills 50% of strains", "result": 0.5, "unit": "µg/mL"},
      {"measurement": "MFC90", "setting": "Cr. neoformans strains [4]; Cr. neoformans, kills 90% of strains", "result": 1, "unit": "µg/mL"},
      {"measurement": "MIC Range", "setting": "[5]; in µg/mL", "result": "1-8"},
      {"measurement": "MIC50", "setting": "[5]; inhibits 50% of strains", "result": 8, "unit": "µg/mL"},
      {"measurement": "MIC90", "setting": "[5]; inhibits 90% of strains", "result": 8, "unit": "µg/mL"},
      {"measurement": "MIC Range", "setting": "[6]; in µg/mL", "result": "0.25-2"},
      {"measurement": "MIC50", "setting": "[6]; inhibits 50% of strains", "result": 1, "unit": "µg/mL"},
      {"measurement": "MIC90", "setting": "[6]; inhibits 90% of strains", "result": 1, "unit": "µg/mL"},
      {"measurement": "MFC50", "setting": "[7]; kills 50% of strains", "result": 2, "unit": "µg/mL"},
      {"measurement": "MFC90", "setting": "[7]; kills 90% of strains", "result": "> 8", "unit": "µg/mL"},
      {"measurement": "MFC50", "setting": "[8]; kills 50% of strains", "result": "> 32", "unit": "µg/mL"},
      {"measurement": "MFC90", "setting": "[8]; kills 90% of strains", "result": "> 32", "unit": "µg/mL"},
      {"measurement": "MIC Range", "setting": "[9]; in µg/mL", "result": "0.25-16"},
      {"measurement": "MIC50", "setting": "[9]; inhibits 50% of strains", "result": 1, "unit": "µg/mL"},
      {"measurement": "MIC90", "setting": "[9]; inhibits 90% of strains", "result": 8, "unit": "µg/mL"},
      {"measurement": "MFC50", "setting": "[10]; kills 50% of strains", "result": "> 8", "unit": "µg/mL"},
      {"measurement": "MFC90", "setting": "[10]; kills 90% of strains", "result": "> 8", "unit": "µg/mL"},
      {"measurement": "MIC Range", "setting": "Fusarium strains [11]; in µg/mL", "result": "0.5-2"},
      {"measurement": "MIC50", "setting": "Fusarium strains [11]; inhibits 50% of strains", "result": 1, "unit": "µg/mL"},
      {"measurement": "MIC90", "setting": "Fusarium strains [11]; inhibits 90% of strains", "result": 2, "unit": "µg/mL"},
      {"measurement": "MFC Range", "setting": "Fusarium strains [12]; in µg/mL", "result": "1-4"},
      {"measurement": "MFC50", "setting": "Fusarium strains [12]; kills 50% of strains", "result": 2, "unit": "µg/mL"},
      {"measurement": "MFC90", "setting": "Fusarium strains [12]; kills 90% of strains", "result": 2, "unit": "µg/mL"},
      {"measurement": "MFC50", "setting": "[13]; kills 50% of strains", "result": 1, "unit": "µg/mL"},
      {"measurement": "MFC90", "setting": "[13]; kills 90% of strains", "result": 8, "unit": "µg/mL"},
      {"measurement": "MIC Range", "setting": "Penicillium strains [14]; Penicillium strains, in µg/mL", "result": "0.5-4"},
      {"measurement": "MIC50", "setting": "Penicillium strains [14]; Penicillium, inhibits 50% of strains", "result": 1, "unit": "µg/mL"},
      {"measurement": "MIC90", "setting": "Penicillium strains [14]; Penicillium, inhibits 90% of strains", "result": 2, "unit": "µg/mL"},
      {"measurement": "MFC50", "setting": "Penicillium strains [15]; kills 50% of strains", "result": 4, "unit": "µg/mL"},
      {"measurement": "MFC90", "setting": "Penicillium strains [15]; kills 90% of strains", "result": "> 8", "unit": "µg/mL"},
      {"measurement": "MFC", "setting": "A. fumigatus AF91", "result": 16, "unit": "µg/mL"},
      {"measurement": "MIC", "setting": "C. albicans SC5314 [16]", "result": 0.125, "unit": "µg/mL"},
      {"measurement": "MFC", "setting": "C. albicans SC5314 [17]", "result": 0.25, "unit": "µg/mL"}
    ]}
  ]
}
